Reference: publication PMC7463651, “Phase I/Ib Study of Tenalisib (RP6530), a Dual PI3K δ/γ Inhibitor in Patients with Relapsed/Refractory T-Cell Lymphoma” (Cancers, 2020)
Where two headings read alike, the source gives them in different places.

Assay: Pharmacokinetic assessments in plasma, phase I/Ib study
Assay type: in vivo, human
Conditions: for Fold increase in Cmax: fasting; for AUC(0-inf) / Cmax / AUC / half-life / Tmax / k el: human, plasma, oral; for AUC: read-out: AUC(0-τ); for Tmax: median; for k el: read-out: λz (converted)
Procedure: Complete PK assessments were performed during dose escalation on Day 1 of Cycle 1 and 2 and pre-dose at other time points (pre-dose on Day 8 and Day 15 of Cycle 1 and 2, Day 1 and Day 15 of Cycle 3 and 4 and pre-dose on Cycle 5 and beyond). In the dose expansion phase, samples were collected pre-dose on Day 1 from Cycle 1 to Cycle 8. The PK parameters included maximum plasma concentration (Cmax), time to maximum plasma concentration (Tmax), area under the plasma concentration-time curve from time of administration to the end of the dosing interval (AUC(0-τ)), apparent oral drug clearance during a dosing interval (CLss/F), apparent volume of distribution during a dosing interval (Vz/F) and elimination half-life (t1/2) were evaluated.

[1] = between 400 mg and 800 mg BID, Cycle 1 Day 1
[2] = 200 mg, 200 mg BID, C1D1, geometric mean
[3] = 200 mg, 200 mg BID, C2D1, geometric mean
[4] = 400 mg, 400 mg BID, C1D1, geometric mean
[5] = 400 mg, 400 mg BID, C2D1, geometric mean
[6] = 800 mg, 800 mg BID (fed), C1D1, geometric mean
[7] = 800 mg, 800 mg BID (fed), C2D1, geometric mean
[8] = 800 mg, 800 mg BID, C1D1, geometric mean
[9] = 800 mg, 800 mg BID, C2D1, geometric mean

Question: With `CC[C@H](Nc1ncnc2[nH]cnc12)c1oc2ccccc2c(=O)c1-c1cccc(F)c1` [Tenalisib] as the molecule, how does the λz (200 mg BID, C2D1) read?
Answer: 0.4 h⁻¹

Question: And the λz (400 mg BID, C2D1)?
Answer: 0.4 h⁻¹

Question: What about the λz (800 mg BID (fed), C1D1) of the same molecule?
Answer: 0.3 h⁻¹

Question: And the λz (800 mg BID (fed), C2D1)?
Answer: 0.3 h⁻¹

Question: And the “Food effect on exposure” value (800 mg BID fasting vs 800 mg BID fed cohort, patients)?
Answer: not significant

Question: And the λz (800 mg BID, C2D1)?
Answer: 0.3 h⁻¹

Question: What about the “Change in Cmax and AUC's, fed vs fasting” value (800 mg fed and fasting cohorts, patients) of the same molecule?
Answer: < 20%

Question: What about the “Dose proportionality of Cmax and AUC(0-τ)” value (Cycle 1 Day 1) of the same molecule?
Answer: increased proportionally with dose

Question: And the “Tissue distribution (Vz/F)” value (all cohorts)?
Answer: not highly distributed in tissues

Question: What about the “Fold increase in AUC(0-τ)” value (between 200mg and 400 mg BID, Cycle 1 Day 1) of the same molecule?
Answer: 1.8 fold

Question: And the “Fold increase in Cmax” value (between 200 mg and 400 mg BID, Cycle 1 Day 1)?
Answer: 1.7 fold

Question: And the “Fold increase in Cmax” value (between 200 mg and 400 mg BID, Cycle 2 Day 1)?
Answer: 1.8 fold

Question: And the “Fold increase in AUC(0-τ)” value [1]?
Answer: 2.6 fold

Question: And the “Fold increase in Cmax” value [1]?
Answer: 1.8 fold

Question: What about the “Fold increase in Cmax” value (between 400 mg and 800 mg BID, Cycle 2 Day 1) of the same molecule?
Answer: 1.1 fold

Question: And the Accumulation (between Cycle 1 Day 1 and Cycle 2 Day 1)?
Answer: no significant accumulation

Question: What about the AUC(0-inf) [2] of the same molecule?
Answer: 3540 ng·h/mL

Question: What about the Cmax [2] of the same molecule?
Answer: 1300 ng/mL

Question: And the AUC [2]?
Answer: 3500 ng·h/mL

Question: And the half-life (200 mg, 200 mg BID, C1D1, geometric mean, read-out: t1/2 (converted))?
Answer: 1.6 h

Question: And the Tmax (200 mg, 200 mg BID, C1D1)?
Answer: 1 h

Question: And the AUC(0-inf) [3]?
Answer: 4020 ng·h/mL

Question: And the Cmax [3]?
Answer: 1650 ng/mL

Question: And the AUC [3]?
Answer: 3970 ng·h/mL

Question: And the half-life (200 mg, 200 mg BID, C2D1, geometric mean, read-out: t1/2 (converted))?
Answer: 1.8 h

Question: And the Tmax (200 mg, 200 mg BID, C2D1)?
Answer: 0.5 h

Question: What about the AUC(0-inf) [4] of the same molecule?
Answer: 6530 ng·h/mL

Question: And the Cmax [4]?
Answer: 2200 ng/mL

Question: What about the AUC [4] of the same molecule?
Answer: 6420 ng·h/mL

Question: And the half-life (400 mg, 400 mg BID, C1D1, geometric mean, read-out: t1/2 (converted))?
Answer: 1.9 h

Question: And the Tmax (400 mg, 400 mg BID, C1D1)?
Answer: 0.8 h

Question: What about the AUC(0-inf) [5] of the same molecule?
Answer: 5600 ng·h/mL

Question: And the Cmax [5]?
Answer: 2900 ng/mL

Question: And the AUC [5]?
Answer: 5530 ng·h/mL

Question: What about the half-life (400 mg, 400 mg BID, C2D1, geometric mean, read-out: t1/2 (converted)) of the same molecule?
Answer: 2 h

Question: And the Tmax (400 mg, 400 mg BID, C2D1)?
Answer: 0.5 h

Question: What about the AUC(0-inf) [6] of the same molecule?
Answer: 14500 ng·h/mL

Question: What about the Cmax [6] of the same molecule?
Answer: 2670 ng/mL

Question: And the AUC [6]?
Answer: 13600 ng·h/mL

Question: And the half-life (800 mg, 800 mg BID (fed), C1D1, geometric mean, read-out: t1/2 (converted))?
Answer: 2.6 h

Question: And the Tmax (800 mg, 800 mg BID (fed), C1D1)?
Answer: 2.1 h

Question: What about the AUC(0-inf) [7] of the same molecule?
Answer: 14200 ng·h/mL

Question: What about the Cmax [7] of the same molecule?
Answer: 4170 ng/mL

Question: And the AUC [7]?
Answer: 13600 ng·h/mL

Question: And the half-life (800 mg, 800 mg BID (fed), C2D1, geometric mean, read-out: t1/2 (converted))?
Answer: 2.8 h

Question: And the Tmax (800 mg, 800 mg BID (fed), C2D1)?
Answer: 1.1 h

Question: What about the AUC(0-inf) [8] of the same molecule?
Answer: 17400 ng·h/mL

Question: What about the Cmax [8] of the same molecule?
Answer: 4000 ng/mL

Question: What about the AUC [8] of the same molecule?
Answer: 16400 ng·h/mL

Question: And the half-life (800 mg, 800 mg BID, C1D1, geometric mean, read-out: t1/2 (converted))?
Answer: 2.6 h

Question: And the Tmax (800 mg, 800 mg BID, C1D1)?
Answer: 1.1 h

Question: And the AUC(0-inf) [9]?
Answer: 17200 ng·h/mL

Question: And the Cmax [9]?
Answer: 3230 ng/mL

Question: What about the AUC [9] of the same molecule?
Answer: 16200 ng·h/mL

Question: And the half-life (800 mg, 800 mg BID, C2D1, geometric mean, read-out: t1/2 (converted))?
Answer: 2.6 h

Question: And the Tmax (800 mg, 800 mg BID, C2D1)?
Answer: 2.1 h

Question: What about the half-life (all cohorts, read-out: Median t1/2 (converted)) of the same molecule?
Answer: 2.28 h

Question: And the half-life (all cohorts, read-out: t1/2 range)?
Answer: 1.6 to 2.8 h

Question: And the k el (200 mg BID, C1D1)?
Answer: 0.000111 s⁻¹

Question: And the k el (400 mg BID, C1D1)?
Answer: 0.000111 s⁻¹

Question: And the k el (800 mg BID, C1D1)?
Answer: 8.33e-05 s⁻¹
